Results: ChEMBL document CHEMBL5726791, “Inhibitors of lysine specific demethylase-1” (2018)

Biological target: Lysine-specific histone demethylase 1A (Homo sapiens, UniProt O60341)
Experiment: In Vitro Enzyme Inhibition Assay: The enzymatic assay of LSD1 activity is based on Time Resolved-Fluorescence Resonance Energy Transfer (TR-FRET) detection. The inhibitory properties of compounds to LSD1 were determined in 384-well plate format under the following reaction conditions: 0.1-0.5 nM LSD1, 50 nM H3K4mel-biotin labeled peptide (Anaspec cat #64355), 2 μM FAD in assay buffer of 50 mM HEPES, pH7.3, 10 mM NaCl, 0.005% Brij35, 0.5 mM TCEP, 0.2 mg/ml BSA. Reaction product was determined quantitatively by TR-FRET after the addition of detection reagent Phycolink Streptavidin-allophycocyanin (Prozyme) and Europium-anti-unmodified histone H3 lysine 4 (H3K4) antibody (PerkinElmer) in the presence of LSD1 inhibitor such as 1.8 mM of Tranylcypromine hydrochloride (2-PCPA) in LANCE detection buffer (PerkinElmer) to final concentration of 12.5 nM and 0.25 nM respectively.

Q: `Cn1ncc2cc(-c3sc(N4CC[C@@H]5CNC[C@@H]5CC4)nc3-c3ccc(C#N)cc3)ccc21` was tested. Which IC50 did it give?
A: Its IC50 is under 100 nM.
